Source: patent US8658636B2, “TRPV4 antagonists” (GlaxoSmithKline, LLC, priority 2010, dated 2014)

molecular target: T1, human TRPV4 (Homo sapiens, UniProt Q9HBA0); experiment: Ligand-gated assay (FLIPR calcium, Fluo4); type: cell-based; conditions: HEK-293-MSR-II cells transduced with BacMam human TRPV4; inhibition of agonist (EC80)-induced activation; read-out: Human TRPV4 FLIPR pIC50 (converted)
T1 construct: expressed in transfected cells; host or cells: HEK-293-MSR-II cells transduced with 1% BacMam virus
T1 sequence (Q9HBA0 whole entry): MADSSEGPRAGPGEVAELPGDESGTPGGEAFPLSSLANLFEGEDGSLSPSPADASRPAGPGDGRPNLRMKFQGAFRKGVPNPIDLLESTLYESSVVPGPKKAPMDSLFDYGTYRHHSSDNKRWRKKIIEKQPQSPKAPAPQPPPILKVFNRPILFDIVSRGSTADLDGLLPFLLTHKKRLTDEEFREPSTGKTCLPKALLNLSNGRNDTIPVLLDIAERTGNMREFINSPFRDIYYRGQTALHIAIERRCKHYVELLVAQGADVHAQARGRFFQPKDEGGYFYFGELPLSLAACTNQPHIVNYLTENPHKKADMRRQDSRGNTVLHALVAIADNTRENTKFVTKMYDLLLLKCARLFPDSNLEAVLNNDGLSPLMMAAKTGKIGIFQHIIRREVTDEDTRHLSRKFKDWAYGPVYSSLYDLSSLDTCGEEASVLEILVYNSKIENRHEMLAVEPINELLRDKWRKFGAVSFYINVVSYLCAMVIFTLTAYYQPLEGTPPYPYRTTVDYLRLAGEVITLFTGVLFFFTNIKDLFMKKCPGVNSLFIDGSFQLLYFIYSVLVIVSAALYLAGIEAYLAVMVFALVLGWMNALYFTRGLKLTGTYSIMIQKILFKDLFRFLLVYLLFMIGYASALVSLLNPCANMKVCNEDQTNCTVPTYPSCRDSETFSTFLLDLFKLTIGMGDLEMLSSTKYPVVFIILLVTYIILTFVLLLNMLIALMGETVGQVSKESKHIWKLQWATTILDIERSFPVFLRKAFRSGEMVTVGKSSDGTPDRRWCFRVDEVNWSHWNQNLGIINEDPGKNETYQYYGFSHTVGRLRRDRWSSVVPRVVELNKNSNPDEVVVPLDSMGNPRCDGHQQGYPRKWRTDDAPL
Description: TRP channel activation/opening results in an influx of divalent and monovalent cations including calcium. The resulting changes in intracellular calcium are monitored using a calcium selective fluorescent dye Fluo4 (MDS Analytical Technologies). Dye loaded cells were initially exposed to test compound to verify a lack of agonist activity. Cells were subsequently activated by addition of an agonist and inhibition of the agonist-induced activation was recorded. Human embryonic kidney 293 cells stably expressing the macrophage scavenger receptor class II (HEK-293-MSR-II) and transduced with 1% BacMam (J. P. Condreay, S. M. Witherspoon, W. C. Clay and T. A. Kost, Proc Natl Acad Sci 96 (1999), pp. 127-132) virus expressing the human TRPV4 gene were plated at 15000 cells/well in a volume of 50 uL in a 384 well poly-D lysine coated plate. Cells were incubated for 24 hours at 37 degrees and 5% CO2. Media was then aspirated using a Tecan Plate-washer and replaced with 20 uL of dye loading buffer: HBSS, 500 uM Brilliant Black (MDS Analytical Technologies), 2 uM Fluo-4. Dye loaded plates were then incubated in the dark at room temperature for 1-1.5 hours. 10 uL of test compound diluted in HBSS+0.01% Chaps was added to the plate, incubated for 10 min at room temperature in the dark and then 10 uL of agonist was added at a final conc. equal to the agonist EC80. Calcium release was measured using the FLIPRtetra (MDS Analytical Technologies).

SMILES | IC50 [nM]
CC1CN(Cc2c(-c3cccc(C(F)(F)F)c3)nc3ccc(S(=O)(=O)C(C)C)cc3c2C(=O)N[C@H](c2ccccc2)C(F)(F)F)CCC1N1CCOCC1 (mixture of isomers) [Example 38, 6-[(1-methylethyl)sulfonyl]-3-{[3-methyl-4-(4-morpholinyl)-1-piperidinyl]methyl}-2-[3-(trifluoromethyl)phenyl]-N-[(1R)-2,2,2-trifluoro-1-phenylethyl]-4-quinolinecarboxamide] | 10
CS(=O)(=O)c1ccc2nc(-c3cccc(C(F)(F)F)c3)c(CN3CCC(N4CCCCC4)CC3)c(C(=O)N[C@H](c3ccccc3)C(F)(F)F)c2c1 [Example 1, 3-(1,4′-bipiperidin-1′-ylmethyl)-6-(methylsulfonyl)-2-[3-(trifluoromethyl)phenyl]-N-[(1R)-2,2,2-trifluoro-1-phenylethyl]-4-quinolinecarboxamide] | 3.16
CCS(=O)(=O)c1cc2c(C(=O)N[C@H](c3ccccc3)C(F)(F)F)c(CN3CCC(N4CCCCC4)CC3)c(-c3cccc(C(F)(F)F)c3)nc2cc1OC [Example 3, 3-(1,4′-bipiperidin-1′-ylmethyl)-6-(ethylsulfonyl)-7-(methyloxy)-2-[3-(trifluoromethyl)phenyl]-N-[(1R)-2,2,2-trifluoro-1-phenylethyl]-4-quinolinecarboxamide] | 6.31
CC(C)Oc1cc2nc(-c3cccc(C(F)(F)F)c3)c(CN3CCC(N4CCOCC4)CC3)c(C(=O)N[C@H](c3ccccc3)C(F)(F)F)c2cc1S(C)(=O)=O [Example 20, 7-[(1-methylethyl)oxy]-6-(methylsulfonyl)-3-{[4-(4-morpholinyl)-1-piperidinyl]methyl}-2-[3-(trifluoromethyl)phenyl]-N-[(1R)-2,2,2-trifluoro-1-phenylethyl]-4-quinolinecarboxamide] | 6.31
COc1cc2nc(-c3cccc(C(F)(F)F)c3)c(CN3CCC(N4CCCCC4)CC3)c(C(=O)N[C@H](c3ccccc3)C(F)(F)F)c2cc1S(=O)(=O)C(C)C [Example 21, 3-(1,4′-bipiperidin-1′-ylmethyl)-6-[(1-methylethyl)sulfonyl]-7-(methyloxy)-2-[3-(trifluoromethyl)phenyl]-N-[(1R)-2,2,2-trifluoro-1-phenylethyl]-4-quinolinecarboxamide] | 3.98
COc1cc2nc(-c3cccc(C(F)(F)F)c3)c(CN3CCC(N4CCOCC4)CC3)c(C(=O)N[C@H](c3ccccc3)C(F)(F)F)c2cc1S(=O)(=O)C(C)C [Example 22, 6-[(1-methylethyl)sulfonyl]-7-(methyloxy)-3-{[4-(4-morpholinyl)-1-piperidinyl]methyl}-2-[3-(trifluoromethyl)phenyl]-N-[(1R)-2,2,2-trifluoro-1-phenylethyl]-4-quinolinecarboxamide] | 6.31
CCOc1cc2nc(-c3cccc(C(F)(F)F)c3)c(CN3CCC(N4CCOCC4)CC3)c(C(=O)N[C@H](c3ccccc3)C(F)(F)F)c2cc1S(=O)(=O)C(C)C [Example 23, 7-(ethyloxy)-6-[(1-methylethyl)sulfonyl]-3-{[4-(4-morpholinyl)-1-piperidinyl]methyl}-2-[3-(trifluoromethyl)phenyl]-N-[(1R)-2,2,2-trifluoro-1-phenylethyl]-4-quinolinecarboxamide] | 6.31
CCOc1cc2nc(-c3cccc(C(F)(F)F)c3)c(CN3CCC(N4CCOCC4)CC3)c(C(=O)N[C@H](c3ccccc3)C(F)(F)F)c2cc1S(=O)(=O)CC [Example 26, 7-(ethyloxy)-6-(ethylsulfonyl)-3-{[4-(4-morpholinyl)-1-piperidinyl]methyl}-2-[3-(trifluoromethyl)phenyl]-N-[(1R)-2,2,2-trifluoro-1-phenylethyl]-4-quinolinecarboxamide] | 10
